“Also recorded” adds a separate entry of the source. Where a SMILES comes first, the peptide text is derived from it. The star is where a group is joined. Cbz = O=C(OCc1ccccc1)*; CH2F = FC*
Key:
DR4 mRNA in HCT116 cells = experiment: bDNA assay of DR4 mRNA; format: cell-based, human
From the text: Total RNA was isolated using the RNA stat-60™ solution (Tel-Test, Inc (Friendsweed, Tex.) according to manufacturer's instruction. The Quantigene bDNA™ signal amplification kit (Chiron diagnostics; East Walpole, Mass.) was used to evaluate mRNA levels. The sequence of GAPDH probe sets was as recommended by the manufacturer. The DR4 probe sets were lined within the region of nucleic acid residues 9 to 582. There were 5 capture probes, 16 labeling probes and 8 blocking probes. The DR5 probe sets were lined within the region of nucleic acid residues 13-591. There were 5 capture probes, 17 labeling probes and 5 blocking probes for DR5. The specificity of the probes was tested using RNA from in vitro transcription using recombinant DcR1, DcR2, DR4 and DR5 constructs. Both DR4 and DR5 probe sets were highly specific for their own RNA transcripts. The signal from each probe sets was linear with the concentrations tested. bDNA assays were performed according to manufacturer's instructions using about 2 μg of total RNA/well.

DR5 mRNA in HCT116 cells = experiment: bDNA assay of DR5 mRNA; format: cell-based, human
Method: The specificity of the probes was tested using RNA from in vitro transcription using recombinant DcR1, DcR2, DR4 and DR5 constructs.

HCT116 cells [1] = experiment: Flow cytometric cell cycle analysis, HCT116; format: cell-based, human
Method: Cell cycle analysis was performed via FACS analysis. HCT116 and HUVEC cells were incubated and treated as described in the figure legends. After the treatments, both floating cells in the medium aid live cells in the plate were collected. Cycle TEST PLUS DNA™ reagent kit (Beckon Dickinson; San Jose, Calif.) was used to stain cells according to manufacturer's instruction. The stained cells were analyzed in a FACS sorter (Becton Dickinson). The percentage of apoptotic cells containing a sub-G1 DNA content was quantitated using the CellQuest program. The percentage of live cells in each phase of cell cycle was quantitated using the ModFit LT program.

[2] = tested on: p21 protein in HCT116 cells; experiment: p21 protein western blot, HCT116; format: cell-based, human
Method: (§1) For Western blotting, cells were lysed in 20 mM Tris-HCl, pH 7.4 containing 10% glycerol, 1% Triton-x100, 150 mM NaCl and protease inhibitors (1 mM PMSF, 10 μg/ml Aprotinin, 10 μg/ml Leupeptin, Sigma). Aliquots of 50 μg of total protein per well were separated in a NuPAGE 4-12% Bis-Tris gel with NuPAGE MES SDS running buffer (Novex; San Diego, Calif.). The gels were transferred to […] pure nitrocellulose membrane (Bio-Rad) by semi-dry transfer cell (Bio-dad; Hercules, Calif.) with NuPAGE transfer buffer. The membranes were blocked with PBS containing 5% nonfat dry milk and incubated with primary antibodies against the proteins of interest followed by a horseradish […] secondary antibody (Amersham; Braunschweig, Germany). Immunoreactivo bands were visualized by the enhanced chemiluminescencesystem (Amersham; Braunschweig, Germany). The antibodies used in this study were: Anti-caspase-3 (Stratagene, #200021; La Jolla, Calif.), anti-p53 and anti-p21 (Oncogene, #0P43 and #0P64; Cambridge, Mass.), and anti-FLIP (#343002, Calbiochem, San Diego, Calif.). The antibodies were used at the concentrations recommended by the manufacturers.

[3] = tested on: HCT116 colon cancer cells; experiment: AlamarBlue cell viability assay; format: cell-based, human; details: 24 hours; CPT-11 50 μg/ml, Apo2L/TRAIL 1 μg/ml
Method: (§2) An AlamarBlue™ assay was used to determine the cell viability. HCT116 colon cancer cells (˜10000 cells/well) were incubated overnight in 10% FBS RPMI 1640 medium in 96-well tissue culture plates. […] AlamarBlue™ was added to the wells for the last 6 hours of the 24 hours incubation time. Fluorescence was read using 96-well fluorometer plate reader with an excitation of 530 nm and emission of 590 nm (CytoFluor multi-well plate reader series 4000, PerSeptive Biosystems; Framingham, Mass.). In addition, the Molecular probes Live/Dead^R viability/cytotoxicity kit (Eugene, Oreg.) was used to evaluate the presence of live or dead cells. In these assays, Calcein-Am (4 μM) and ethidium homodimer-1 (2 μM) were added to treated cells 15 minutes before inspecting the cultures under an Axiovert 25 (Zeiss; Thornwood, N.Y.) fluorescence microscope equipped with fluorescein (calcein) and rhodamine (ethidium homodimer-1) filters.

[4] = tested on: p21 protein in HUVEC cells; experiment: p21 protein western blot, HUVEC; format: cell-based, human; details: normal HUVEC cells; 24 hours
Method: as §1

HCT116 cells [5] = experiment: Live/Dead viability/cytotoxicity fluorescence microscopy (calcein-AM, ethidium homodimer-1); format: cell-based, human
Method: as §2

[6] = tested on: COLO205 colon carcinoma cells; experiment: COLO205 colon carcinoma tumor growth in athymic nude mice (Example 1)
Method: The colon carcinoma cell line COLO205 (available from NCI) were grown and maintained according to the supplier's methods. Briefly, COLO205 cells were cultured in high glucose DMEM/F12 (50:50) media containing 10% fetal bovine serum and 2.0 mM L-Glutamine. […] CPT-11 (Camptosar®) was obtained from Pharmacia & Upjohn.

[7] = tested on: p53 protein in HCT116 cells; experiment: p53 protein western blot, HCT116; format: cell-based, human; details: HCT116 tumor cells; 2 and 24 hours; hydrochloride trihydrate
Method: as §1

[8] = tested on: p53 protein in HUVEC cells; experiment: p53 protein western blot, HUVEC; format: cell-based, human; details: normal HUVEC cells; 2 and 24 hours; hydrochloride trihydrate
Method: as §1

[9] = tested on: HCT116 colon cancer cells; experiment: Crystal violet cell survival assay; format: cell-based, human; details: SN-38 0.05 microgram/ml; FIG. 15
Method: A crystal violet assay was also used. […] The medium was removed the following day, and the cells were incubated for 24 or 48 hours in the fresh medium containing the various agents noted above. At the end of each treatment, the medium was removed and 100 μl of 0.5% crystal violet solution was added to each well and incubated at room temperature for 10 minutes before washing with water. After the wells were dry, 100 μl of ethanol containing 0.5 N HCL was added to each well. The plates were then read at 540 nm using a 96-well plate reader (Spectra Max 340pc, Molecular Devices Corporation, Sunnyvale, Calif.).

[10] = 24 hours of treatment, without Z-VAD

**Q.** How did the “increase in DR4 mRNA in the presence of Z-VAD” value (DR4 mRNA in HCT116 cells; 24 hours, with Z-VAD) turn out when CC(NC(=O)C(NC(=O)OCc1ccccc1)C(C)C)C(=O)NC(CC(=O)O)C(=O)CF (stereo not drawn) [Z-VAD] (Cbz-Val-Ala-Asp-CH2F; configuration not given here) was run?
**A.** did not block

**Q.** What about the “increase in DR5 mRNA in the presence of Z-VAD” value (DR5 mRNA in HCT116 cells; 24 hours, with Z-VAD) of the same compound?
**A.** did not block

**Q.** What about the “effect of caspase inhibitor on Apo2L/TRAIL-mediated apoptosis” value (HCT116 cells [1]; HCT116) of the same compound?
**A.** effectively blocked Apo2L/TRAIL-mediated apoptosis

**Q.** For CCc1c2c(nc3ccc(OC(=O)N4CCC(N5CCCCC5)CC4)cc13)-c1cc3c(c(=O)n1C2)COC(=O)[C@]3(O)CC.Cl.O.O.O [CPT-11, (4S)-4,11-diethyl-4-hydroxy-9-[(4-piperidino-piperidino)carbonyloxyl]-1H-pyrano[3′,4′:6,7]indolizino [1,2-b]quinoline-3,14(4H,12H)dione hydrochloride trihydrate], which “time profile of changes in p21 protein levels” value ([2]; CPT-11 incubation) is on record?
**A.** increases as early as 4 hours of treatment

**Q.** What about the p21 protein level ([2]; HCT116 tumor cells, 24 hours) of the same compound?
**A.** large induction of p21 protein

**Q.** And the “increase in DR4 mRNA compared with controls” value (DR4 mRNA in HCT116 cells; 2 hours of treatment)?
**A.** not at 2 hours

**Q.** What about the “increase in DR4 mRNA compared with controls” value (DR4 mRNA in HCT116 cells; [10]) of the same compound?
**A.** 2.5 fold

**Q.** And the “effect on Apo2L/TRAIL-mediated apoptosis (number of live cells)” value [3]?
**A.** enhanced Apo2L/TRAIL-mediated apoptosis in vitro

**Q.** And the “increase in DR5 mRNA expression compared with controls” value (DR5 mRNA in HCT116 cells; 2 hours of treatment)?
**A.** not at 2 hours

**Q.** And the “increase in DR5 mRNA compared with controls” value (DR5 mRNA in HCT116 cells; [10])?
**A.** 2.5 fold

**Q.** What about the “induction of DR5 expression by CPT-11 in vitro” value (DR5 mRNA in HCT116 cells; time of exposure, hydrochloride trihydrate) of the same compound?
**A.** can be observed after two hours exposure or incubation; also recorded: induced in vitro following exposure of cells to 50 microgram/ml CPT-11 for 6 hours

**Q.** What about the p21 protein level [4] of the same compound?
**A.** large induction of p21 protein

**Q.** What about the “morphological changes / cell killing” value (HCT116 cells [5]; 2 hours of treatment) of the same compound?
**A.** did not show any morphological changes

**Q.** What about the cell death (HCT116 cells [5]; 24 hours of treatment) of the same compound?
**A.** a few dead cells were clearly present

**Q.** And the “animals in which tumor growth resumed several days after the treatment period” value ([6]; 9 mice per group)?
**A.** 9 animals

**Q.** What about the “effect on tumor growth” value ([6]; s.c. COLO205 tumors, Apo-2L 30 mg/kg/day days 0-4 and 7-11, CPT-11 80 mg/kg/day days 0, 4, 8, 34 days) of the same compound?
**A.** suppressed tumor growth during the treatment period

**Q.** And the p53 protein level [7]?
**A.** strong and sustained induction of p53 expression; also recorded: increase in p53 protein levels

**Q.** What about the p53 protein level [8] of the same compound?
**A.** strong and sustained induction of p53 expression; also recorded: increase in p53 protein levels

**Q.** And the “cells in Go-G1 (cell cycle arrest)” value (HCT116 cells [1]; 6 hours, control 30%)?
**A.** 76%

**Q.** And the Go-G1 phase (HCT116 cells [1]; 24 hours)?
**A.** clear reduction in Go-G1 phase

**Q.** And the “cells in G2-M phase (arrest)” value (HCT116 cells [1]; 24 hours, control 19%)?
**A.** 43%

**Q.** And the “apoptosis (sub-G1 DNA content)” value (HCT116 cells [1]; 24 hours, control cells 1%)?
**A.** 9%

**Q.** CCc1c2c(nc3ccc(O)cc13)-c1cc3c(c(=O)n1C2)COC(=O)[C@]3(O)CC [SN38] was tested. Which “tumor cell death with SN38 instead of CPT-11 in combination and sequential treatments with Apo2L/TRAIL” value [9] did it give?
**A.** Increased tumor cell death

Source: patent publication US20110059104A1, “Apo-2L receptor agonist and CPT-11 synergism” (Genentech, Inc., priority 2000, published 2011)
